Source: US7728105B2, “Peptides impairing PBX dependent gene regulation” (St. George's Hospital Medical School, priority 2002, dated 2010)
“Also recorded” adds a separate entry of the source.

Legend:
Assay type in all cases: cell-based, human
[1] = system: AC133+ cells; assay: Short-term ex-vivo AC133+ cell expansion culture with HXP peptide, trypan blue cell count
Procedure: Umbilical Cord Blood (UCB) specimens were collected from full-term deliveries scheduled for elective caesarian sections following hospital ethical regulations.
Samples were diluted 1 in 4 in PBS supplemented with a citrate-based anti-coagulant (0.6% ACD-A, Baxter, France) and Bovine Serum Albumin (0.5% fraction V, Sigma Aldrich, UK) at pH=7.4 and referenced as “ACD-A buffer”. Diluted UCB was carefully overlaid in a 1:4 ratio onto a research grade Ficoll-Paque solution (d:1.077 g/cm^3, Pharmacia Biotech, Sweden) prior to Centrifugation (400 g, 30 minutes, 22° C.). The mononuclear cells (MNC) layer was extracted, washed twice in ACD-A Buffer, pelleted (400 g, 10 minutes) before resuspending in ACD-A buffer and cell aliquots taken for cell viability/enumeration using trypan blue (Sigma Aldrich).
AC133+ cells were obtained from MNC after immunomagnetic separation using the AC133 mini-MACS selection kit (Miltenyi Biotec, Germany): labelling volume 500 μl/10^8 cells in ACD-A buffer containing Fc Receptor-blocking reagent (100 μl, 5 min incubation, 4° C.) before adding colloidal super-paramagnetic MACS MicroBeads conjugated to monoclonal mouse anti-human AC133/1 antibody (100 μl IgG1 isotype, 25 min incubation, 4° C.). Cells were then washed (5 ml ACD-A buffer, 400 g, 10 min, 4° C.) before resuspended cells in 500 μl ACD-A buffer were applied to a chilled MACS positive selection column (MS+/RS+) on a magnet. The column was rinsed with cool ACD-A buffer (4×500 μl) and the AC133− cell population retained at 4° C. After magnet removal AC133+ cells were eluted with 1 ml of cold ACD-A buffer. The AC133+ cell fraction was reapplied to a new column, prior to cell enumeration and viability assays.
AC133+ cells were seeded in duplicate in liquid culture system at 2-4×10^4 cells/ml. […] Cultured cells were then counted at various time points using trypan blue exclusion method described above.

[2] = system: PBX/HOX dimers; assay: Western blotting of PBX and PBX/HOX dimers in CD133+ cells (Example 3); conditions: 20 μg/ml, EDC cross-linking
Procedure: CD133+ cells (another name for AC133+ cells) were seeded in duplicate at 4×10^4 cells/ml in IMDM (Life Technologies), 10% FCS (Sigma Aldrich) and gentamycin (50 μg/ml Life Technologies) and Thrombopoietin (TPO) 10 ng/ml, Flt3-Ligand (FL) 50 ng/ml & c-KitL (K) 20 ng/ml), all obtained from R and D systems Ltd., UK. (Forraz et al., 2002). The HXP peptide (N-term: WYPWMKKHHRQIKIWFQNRRMKWKK: C-term; Eurogentec, Belgium) and control CXP peptide (N-term: WCCLADRHGRQIKIWFQNRRMKWKK: C-term; Eurogentec, Belgium) were added to culture medium at a concentration of 20 μg/ml. To withdraw peptides from culture, cells were washed twice in IMDM or RPMI and reseeded at prewash cell densities. Primary cells were cultured for 3 weeks at 37° C., 5% CO2 in humidified atmosphere and enumerated by a […] exclusion method with a heamocytometer.
Protein was extracted from HXP-treated or CXP-treated CD133+ cells (20 μg/ml). C-20 antibody that recognises all three human PBX gene proteins (sc-888, Santa Cruz Biotechnology Inc., USA; Monica et al., 1991). Protein cross linking was performed with 2 mM 1-ethyl-3-[3-(dimethylamino)propyl]carbodiimide (EDC) (Pierce Biotechnology, USA), in cell lysates diluted 1:10 in conjugation buffer (0.1M 2-[N-morpholino]ethane sulphonic acid, pH 5). […]

[3] = system: Hox genes in malignant cell lines; assay: RT-PCR of HOX gene expression in malignant cell lines; conditions: 20 μg/ml, at least two different Hox genes in each case
Procedure: A number of cell lines representing different malignancies were grown in culture for seven days, and HXP peptide or the control peptide CXP were added to a final concentration of 20 μg/ml on day 3. The bars represent the fold increase of each cell line over the seven days; the empty, dashed bars indicate the CXP peptide treated cells, whilst the solid bars indicate the addition of HXP peptide. Error bars represent the standard error the mean, and n is the number of experiments performed. The cell lines used were: AML—KG1a; Bladder—HT; Breast—SKBR3; Cervical—HeLa; Colon—Colo41; Gastric—MKN-45; Large cell lung cancer—MES; Melanoma—DX3; Ovarian—1847; Pancreatic—Panc-Tu1; Prostate—LNCAP; Renal—HT1376; Small cell lung cancer—NCI-h510A. The change in the expression of the HOX genes expressed by each cell line was assessed by RT-PCR on RNA extracted from the cells at the end of seven days. ‘HOX gene inactivated’ means that the level of expression of each of the listed HOX genes was at least five fold lower in the HXP peptide treated cells compared to the control. *Analysis not yet complete.
The sequences of RT-PCR primers used are set out below. For each primer pair, the amplified region is given in relation to the known gene sequence as available through GenBank (http://www.ncbi.nlm.nih.gov/entrez).

WYPWMKKHHRQIKIWFQNRRMKWKK [HXP peptide]
cell growth of AC133+ cells ([1]; 20 μg/ml, TPOFLK supplemented liquid culture): slowing their growth; also recorded: slowed | AC133+ cell proliferation after withdrawal of HXP peptide ([1]; withdrawal at 7 days): started to proliferate again | binding of PBX to other proteins / formation of PBX/HOX dimers [2]: prevented binding of PBX to other proteins; also recorded: distrupted the formation of PBX/HOX dimers | Hox gene expression in each cancer cell line with reduced proliferation [3]: transcriptionaly silenced
